From patent US5723306A, “Monoclonal antibodies for the detection of pyrethroids and a process for their production” (Dragerwerk Aktiengesellschaft, priority 1993, dated 1998)

What was measured:
Assay type in all cases: binding, mouse
[1] = system: hybridoma clone MAB 3/B4-1/F8; assay: competitive immunoassay (ELISA), cross reactivity with MAB 3/B4-1/F8; conditions: n.b. = not determinable
Method: (§1) The screening conjugates described in Section 1.2 were used for this purpose. In addition, "Maxisorp" (from the Nunc Corporation) microtiter plates were used. The immunoscreening method, i.e., an indirect, competitive immunoassay with free antibodies, is shown in the form of a schematic diagram in FIG. 7. First, each of the microtiter plate depressions was coated with 300 μL of hapten OVA conjugate (10 μg/mL in carbonate buffer) (coating). This was carded out over the course of 15-18 hours at 4° C. Then the depressions were washed 3 times with, for example, PBS Tween 20 buffer. To block the unoccupied bonding sites on the microtiter plate, about 300 μL of 0.1% OVA solution was added to each depression. This batch was incubated for 1-2 hours and then washed again as described. To verify the results, two separate screening processes were used (FIG. 7):
(§2) In this immunoassay, the hapten-OVA conjugates bound in the solid phase (Section 1.2) compete with the free antigen in the form of a solution of a mixture of pyrethroids. For the direct detection (Section 5.1), 100 μL of PBS buffer and 100 μL of cell culture supernatant (Section 4) per depression are incubated for one hour at room temperature under gentle agitation. Then a washing step is carried out with PBS Tween 20 buffer. This is followed by incubation with the peroxidase-(POD)-conjugated anti-mouse antibodies known to those skilled in the art. After the addition of enzyme substrate, the color is developed. The reaction is stopped after 30 minutes with 2N H2 SO4 and evaluated by spectrophotometry. The positive hybridoma cells, which secrete a specific antibody, give a strong color signal.
(§3) For this purpose, 100 μL of analyte solution (10 mg/L of pyrethroid substance in mixture MIX I/II in PBS buffed and 100 μL of culture supernatant (Section 4) per depression in the microtiter plate are incubated for 1 hour at room temperature.
(§4) If the cell culture supernatant contains specific antibodies with high affinity for at least one substance in the mixture in question (MIX I/II), these bind to the free hapten present in excess (pyrethrins/pyrethroids) and not to the hapten conjugate bound in the solid phase. The monoclonal antibodies bound to the hapten are then removed in the following washing step. This is followed by the incubation, known to those skilled in the art, with peroxidase-(POD)-conjugated anti-mouse antibodies and by subsequent addition of enzyme substrate and color development. After a predetermined incubation time, the microtiter plates are evaluated by spectrophotometry. Positive hybridoma cells which secrete an antibody selective for the pyrethroids in MIX I/II give a weaker color signal or no signal at all. Hybridoma cells which secrete antibodies which bind non-specifically to the hapten conjugate cannot be displaced by the excess pyrethroid and give a corresponding color signal. If no antibodies are present in the culture supernatant, there is no color reaction in either of the two cases.
(§5) Pyrethrum, pyrethroids, their derivatives, and/or their metabolites are detected with the help of the hapten screening conjugates and biotin tracers described in Section 1 and by the use of the competitive immunoassay (ELISA) described in Section 5.
(§6) In the direct-competitive test for low-molecular substances such as pyrethroids, a competition for a constant number of antibody binding sites takes place between an unmarked analyte of unknown quantity (here: pyrethroid) and a tracer (marked hapten) of known quantity. The antibody is immobilized on a solid phase. Depending on the amount of unmarked analyte in the sample, the antibody binding sites are occupied to a greater or lesser extent by tracer or analyte. The tracer is detected by a color reaction, which means that the detection signal on the solid phase is inversely proportional to the amount of analyte detected. The color development is measured by spectrophotometry at a defined wavelength. […]

[2] = system: hybridoma clone MAB 1/E2-5/B5; assay: competitive immunoassay (ELISA), cross reactivity with MAB 1/E2-5/B5; conditions: n.b. = not determinable
Method: as §1, §2, §3, §4, §5, §6

[3] = system: isolated monoclonal antibodies (groups 3/B4-1/F8 and 1/E2-5/B5); assay: competitive ELISA with the isolated monoclonal antibodies (both groups); conditions: both antibody groups
Method: as §1, with “This batch was incubated for 1-2 hours and then washed again as described. To verify the results, two separate screening processes were used (FIG. 7):” left out
In this immunoassay, the hapten-OVA conjugates bound in the solid phase (Section 1.2) compete with the free antigen in the form of a solution of a mixture of pyrethroids. […] The reaction is stopped after 30 minutes with 2N H2 SO4 and evaluated by spectrophotometry. […]
If the cell culture supernatant contains specific antibodies with high affinity for at least one substance in the mixture in question (MIX I/II), these bind to the free hapten present in excess (pyrethrins/pyrethroids) and not to the hapten conjugate bound in the solid phase. […] After a predetermined incubation time, the microtiter plates are evaluated by spectrophotometry. […]

With `CC1(C)C(C=C(Cl)Cl)C1C(=O)OC(C#N)c1cccc(Oc2ccccc2)c1` (stereo not shown) [cypermethrin] the “% cross reactivity” value [1] was “n.b”.
In the case of `CC1(C)[C@H](C=C(Cl)Cl)[C@H]1C(=O)OCc1c(F)c(F)c(F)c(F)c1F` [fenfluthrin], the “% cross reactivity” value [2] is reported as 13% and the “% cross reactivity” value [1] is reported as 2%.
In the case of `O=C(O)c1cccc(Oc2ccccc2)c1` [PBZ, 3-phenoxybenzoic acid], the “% cross reactivity” value [2] is reported as “n.b” and the “% cross reactivity” value [1] is reported as “n.b”.
With `CC(C)=CC1C(C(=O)OCc2cccc(Oc3ccccc3)c2)C1(C)C` (stereo not shown) [phenothrin] the “% cross reactivity” value [2] was 86% and the “% cross reactivity” value [1] was “n.b”.
For `CC1(C)[C@H](C(=O)O[C@H](C#N)c2cccc(Oc3ccccc3)c2)[C@@H]1C=C(Br)Br` [deltamethrin], the “% cross reactivity” value [2] was “n.b” and the “% cross reactivity” value [1] was “n.b”.
`CC1(C)C(C=C(Cl)Cl)C1C(=O)OC(C#N)c1ccc(F)c(Oc2ccccc2)c1` (stereo not shown) [cyfluthrin] was tested, and the “% cross reactivity” value [1] was “n.b”.
With `CC1(C)C(C=C(Cl)Cl)C1C(=O)OCc1cccc(Oc2ccccc2)c1` (stereo not shown) [permethrin] the “% cross reactivity” value [1] was “n.b”.
In the case of `C=CCC1=C(C)C(OC(=O)[C@@H]2[C@@H](C=C(C)C)C2(C)C)CC1=O` (stereo partly shown) [bioallethrin], the “% cross reactivity” value [2] is reported as 104% and the “% cross reactivity” value [1] is reported as 100%.
In the case of `CC1(C)[C@H](C=C(Cl)Cl)[C@H]1C(=O)O` [trans-PMS, (1R,trans)-permethric acid], the “% cross reactivity” value [2] is reported as greater than 1%, the “cross reactivity (in words)” value [3] is reported as “little or no cross-reactivity” and the “% cross reactivity” value [1] is reported as “n.b”.
In the case of `CC(C)C(C(=O)OC(C#N)c1cccc(Oc2ccccc2)c1)c1ccc(Cl)cc1` (stereo not shown) [fenvalerat], the “% cross reactivity” value [2] is reported as “n.b” and the “% cross reactivity” value [1] is reported as “n.b”.
In the case of `CC1(C)[C@H](C(=O)O)[C@@H]1C=C(Cl)Cl` [cis-PMS, (1R,cis)-permethric acid], the “% cross reactivity” value [2] is reported as “n.b”, the “cross reactivity (in words)” value [3] is reported as “little or no cross-reactivity” and the “% cross reactivity” value [1] is reported as “n.b”.
For `C=CCC1=C(C)C(OC(=O)C2C(C=C(C)C)C2(C)C)CC1=O` (stereo not shown) [allethrin], the “% cross reactivity” value [2] was 100% and the “% cross reactivity” value [1] was 45%.
In the case of `CC(C)=CC1C(C(=O)O)C1(C)C` (stereo not shown) [CTS, chrysanthemum acid], the “% cross reactivity” value [2] is reported as “n.b” and the “% cross reactivity” value [1] is reported as “n.b”.
